System: HBV
Assay: HBV-DNA antiviral assay using HepG2.117 cells (intracellular HBV DNA by qPCR)
Assay type: cell-based, genotype D HBV
Conditions: Hepatitis B virus, 72 h, HBV DNA inhibition, 3 days incubation, 2% DMSO
How it was run: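 HepG2.117 cells (stable genotype D HBV, Tet-off) seeded without doxycycline, treated next day with 9-point 4-fold dilutions in 2% DMSO for 3 days at 37° C. Intracellular HBV DNA quantified by qPCR against a standard curve; viability by CellTiter-Glo ATP. EC50, EC90, CC50 from variable-slope dose-response fits versus DMSO control.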

SMILES | EC50 [nM]
CC(C)[C@H](N)C(=O)OCN(C)C(=O)c1ccc(-n2c(=O)c3c(n4ncc(CC5CC5)c24)CN(C(=O)c2ccc(Br)c(C(F)(F)F)c2)[C@@H](C)C3)cc1 [Compound 90, [[4-[(11S)-12-[4-bromo-3-(trifluoromethyl)benzoyl]-5-(cyclopropylmethyl)-11-methyl-8-oxo-2,3,7,12-tetrazatricyclo[7.4.0.0^2,6]trideca-1(9),3,5-trien-7-yl]benzoyl]-methylamino]methyl (2S)-2-amino-3-methyl-butanoate] | > 5000
CC(C)[C@@H](N)C(=O)OCN(C)C(=O)c1ccc(-n2c(=O)c3c(n4ncc(CC5CC5)c24)CN(C(=O)c2ccc(Br)c(C(F)(F)F)c2)[C@H](C)C3)cc1 [Compound 106, [[4-[(11R)-12-[4-bromo-3-(trifluoromethyl)benzoyl]-5-(cyclopropylmethyl)-11-methyl-8-oxo-2,3,7,12-tetrazatricyclo[7.4.0.0^2,6]trideca-1(9),3,5-trien-7-yl]benzoyl]-methyl-amino]methyl (2S)-2-amino-3-methyl-butanoate] | < 50

From patent publication US11820773B2, “Tricyclic compounds” (ALIGOS THERAPEUTICS, INC., priority 2020, dated 2023)
